Data: US6410792B1, “Amide derivatives and methods for using the same as selective neuropeptide Y receptor antagonists” (Bayer Corporation, priority 1997, dated 2002)
Read-outs that look alike come from different tables or passages of the source.

Tests used:
[1] = biological target: T1, Y2 receptor (Homo sapiens, UniProt P49146); assay: Y2 receptor binding assay ([125I]PYY, membrane protein); conditions: read-out: hNPY2 IC50
T1 sequence (P49146 1-381): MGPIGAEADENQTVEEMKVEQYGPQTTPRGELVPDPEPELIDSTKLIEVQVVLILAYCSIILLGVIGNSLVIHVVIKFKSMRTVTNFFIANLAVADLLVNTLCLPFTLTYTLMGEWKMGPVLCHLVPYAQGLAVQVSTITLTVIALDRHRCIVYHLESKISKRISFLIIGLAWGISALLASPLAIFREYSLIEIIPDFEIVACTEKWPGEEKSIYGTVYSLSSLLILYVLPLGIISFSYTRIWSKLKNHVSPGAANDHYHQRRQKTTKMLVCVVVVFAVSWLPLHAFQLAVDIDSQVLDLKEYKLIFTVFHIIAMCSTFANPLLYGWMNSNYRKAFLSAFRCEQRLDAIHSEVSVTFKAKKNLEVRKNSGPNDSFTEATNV
Procedure: B. Human Y2 and Y4/PP1 Receptor Binding Assays
Binding assays were performed on GF/C Millipore 96-well plates pretreated with 0.02% polyethylenimine. The binding buffer for rat Y2 binding is Krebs-Ringer bicarbonate (pH 7.4) containing 0.01% BSA and 0.005% bacitracin. Samples consist of membrane protein, 25 pM [1251]PYY and drug dilution. Nonspecific binding is defined by 1 μM NPY. The binding buffer for human Y4/PP1 binding consists of 137 mM NaCl, 5.4 mM KCl, 0.44 mM KH2PO4, 1.26 mM CaCl2, 0.81 mM MgSO4, 20 mM HEPES, 1 mM dithiothreitol, 0.1% bacitracin, 100 mg/l streptomycin sulfate, 1 mg/l aprotinin, 10 mg/ml soybean trypsin inhibitor and 0.3% BSA, pH 7.4. Samples consist of membrane protein, 50 pM human [1251]human PP (hPP: NEN DuPont, Boston, Mass.) and drug dilution. 1 μM hPP is used to define nonspecific binding.
After a 2 hour incubation at room temperature with constant mixing, the samples are aspirated on a vacuum manifold, and rinsed with ice-cold binding buffer. The amount of radioactivity in each well is quantitated with either gamma counting or liquid scintillation.

[2] = biological target: T2, Human NPY5 receptor (Homo sapiens, UniProt Q15761); assay: Human NPY5 receptor binding assay ([125I]PYY, membrane protein); conditions: [125I]PYY binding, read-out: hNPY5 IC50
T2 sequence (Q15761 1-445): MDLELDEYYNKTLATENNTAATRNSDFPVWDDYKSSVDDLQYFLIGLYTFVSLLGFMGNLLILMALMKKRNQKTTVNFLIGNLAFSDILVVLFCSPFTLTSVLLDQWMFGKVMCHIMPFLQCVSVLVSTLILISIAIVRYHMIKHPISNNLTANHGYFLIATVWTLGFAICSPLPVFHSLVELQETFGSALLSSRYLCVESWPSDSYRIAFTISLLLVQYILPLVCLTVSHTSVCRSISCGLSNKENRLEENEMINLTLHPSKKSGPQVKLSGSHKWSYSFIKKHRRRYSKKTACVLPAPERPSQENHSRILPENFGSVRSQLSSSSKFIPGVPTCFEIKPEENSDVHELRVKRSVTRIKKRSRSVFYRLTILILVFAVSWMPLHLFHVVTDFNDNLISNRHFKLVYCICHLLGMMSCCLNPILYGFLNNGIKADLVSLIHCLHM
Procedure: C. Human and Rat NPY5 Receptor Binding Assays
Binding assays are performed on GF/C Millipore 96well plates pretreated with 0.02% polyethylenimine. The binding buffer is 25 mM Tris, 120 mM NaCl, 5 mM KCl, 1.2 mM KH2PO4, 2.5 mM CaCl2, 1.2 mM MgSO4, 0.1% BSA and 0.5 mg/ml bacitracin, pH 7.4. Samples consist of membrane protein, 75-100 pM [125I]PYY (porcine, NEN-DuPont) and drug dilution. Nonspecific binding is defined by 1 μM PYY. After a 2 hour incubation at room temperature with constant mixing, the samples are aspirated on a vacuum manifold, and rinsed with ice-cold binding buffer. The amount of radioactivity in each well is quantitated with either gamma counting or liquid scintillation.

[3] = [125I]PYY binding, membrane protein

CCCC(=O)C1(c2ccccc2)CCN(CC(=O)Nc2ccc(C3CCCCC3)cc2)CC1 [Compound 75, 2-(4-Butyryl-4-phenyl-piperidin-1-yl)-N-(4-cyclohexyl-phenyl)-acetamide]
IC50 [1]: > 5 µM
IC50 [2]: 0.009 µM

CN(C)CC(=O)Nc1ccc(C2CCCCC2)cc1 [Compound 2, N-(4-Cyclohexyl-phenyl)-2-dimethylamino-acetamide]
IC50 [1, 3]: > 5 µM
IC50 [2]: 0.78 µM

CCCC(=O)C1(c2ccccc2)CCN(CC(=O)Nc2ccc(C(=O)c3ccccc3)cc2)CC1 [Compound 74, N-(4-Benzoyl-phenyl)-2-(4-butyryl-4-phenyl-piperidin-1-yl)-acetamide]
IC50 [1, 3]: > 5 µM
IC50 [2]: 0.4 µM

O=C(CN1CCC(C(=O)N2CCCCC2)(c2ccccc2)CC1)Nc1ccc(C(=O)c2ccccc2)cc1 [Compound 73, N-(4-Benzoyl-phenyl)-2-[4-phenyl-4-(piperidine-1-carbonyl)-piperidin-1-yl]-acetamide]
IC50 [1, 3]: > 5 µM
IC50 [2]: > 5 µM

O=C(CN1CCC(N2CCCC2)CC1)Nc1ccc(C2CCCCC2)cc1 [Compound 29]
IC50 [1, 3]: > 5 µM
IC50 [2]: 4.4 µM

COC[C@@H]1CCCN1CC(=O)Nc1ccc(C2CCCCC2)cc1 [Compound 93, N-(4-Cyclohexyl-phenyl)-2-(2S-methoxymethyl-pyrrolidin-1-yl)-acetamide]
IC50 [1, 3]: > 5 µM
IC50 [2]: 0.48 µM

O=C(CN1CC[C@@H](O)C1)Nc1ccc(C(=O)c2ccccc2)cc1 [Compound 81, N-(4-Benzoyl-phenyl)-2-(3R-hydroxy-pyrrolidin-1-yl)-acetamide]
IC50 [1, 3]: > 5 µM
IC50 [2]: > 5 µM

CCN(CC)CC(=O)Nc1ccc(C(=O)c2ccccc2)cc1 [Compound 7, N-(4-Benzoyl-phenyl)-2-diethylamino-acetamide]
IC50 [1, 3]: > 5 µM
IC50 [2]: 1.6 µM

O=C(CN1CCC(O)(Cc2ccccc2)CC1)Nc1ccc(C2CCCCC2)cc1 [Compound 1, 2-(4-Benzyl-4-hydroxypiperidin-1-yl)-N-(4-cyclohexylphenyl)acetamide]
IC50 [1, 3]: > 5 µM
IC50 [2]: 0.15 µM

O=C(CN1CC[C@@H](O)C1)Nc1ccc(C2CCCCC2)cc1 [Compound 80, N-(4-Cyclohexyl-phenyl)-2-(3R-hydroxy-pyrrolidin-1-yl)-acetamide]
IC50 [1, 3]: > 5 µM
IC50 [2]: 1.4 µM

CCCOC1(c2ccccc2)CCN(CC(=O)Nc2ccc(C(=O)c3ccccc3)cc2)CC1 [Compound 66, N-(4-Benzoyl-phenyl)-2-(4-phenyl-4-propoxy-piperidin-1-yl)-acetamide]
IC50 [1, 3]: > 5 µM
IC50 [2]: 0.78 µM

COC(=O)[C@@H]1CCCN1CC(=O)Nc1ccc(C2CCCCC2)cc1 [Compound 96, (2S)-1-[(4-Cyclohexyl-phenylcarbamoyl)-methyl]-pyrrolidine-2-carboxylic acid methyl ester]
IC50 [1, 3]: > 5 µM
IC50 [2]: 1.2 µM

COc1ccc(C(=O)C2CCN(CC(=O)Nc3ccc(C(=O)c4ccccc4)cc3)CC2)cc1 [Compound 122, N-(4-Benzoyl-phenyl)-2-[4-(4-methoxy-benzoyl)-piperidin-1-yl]-acetamide]
IC50 [1, 3]: > 5 µM
IC50 [2]: 9.9 µM

O=C(CN1CCN(c2ccccc2Cl)CC1)Nc1ccc(C2CCCCC2)cc1 [Compound 3, 2-[4-(2-Chloro-phenyl)-piperazin-1-yl]-N-(4-cyclohexyl-phenyl)-acetamide]
IC50 [1, 3]: > 5 µM
IC50 [2]: 0.19 µM

O=C(CNCC1CCNCC1)Nc1ccc(C(=O)c2ccccc2)cc1 [Compound 43, N-(4-Benzoyl-phenyl)-2-[(piperidin-4-ylmethyl)-amino]-acetamide]
IC50 [1, 3]: > 5 µM
IC50 [2]: > 10 µM

O=C(CN1CCC(CCCC2CCNCC2)CC1)Nc1ccc(C(=O)c2ccccc2)cc1 [Compound 37, N-(4-Benzoyl-phenyl)-2-[4-(3-piperidin-4-yl-propyl)-piperidin-1-yl]-acetamide]
IC50 [1, 3]: > 5 µM
IC50 [2]: > 10 µM

O=C(CN1CCC(Br)CC1)Nc1ccc(C2CCCCC2)cc1 [Compound 97, 2-(4-Bromo-piperidin-1-yl)-N-(4-Cyclohexyl-phenyl)-acetamide]
IC50 [1, 3]: > 5 µM
IC50 [2]: 0.15 µM
